In patent publication US9301951B2 (Ardelyx, Inc., priority 2010, dated 2016):
Marks after values point to notes of the source that are not given here.

Legend:
[1] = test system: Sprague-Dawley rats; test: In vivo bolus phosphorus challenge (serum phosphate elevation); conditions: rat; oral; drug dose 30; phosphate bolus 15 min after compound; serum 30 min post bolus
Experimental: By pretreating animals with a low phosphorus diet followed by the subsequent dosing of a phosphorus bolus, serum phosphorus levels were monitored after 30 minutes as a surrogate for intestinal phosphorus absorption. […] The in vivo bolus phosphorus challenge model used here mimics this model in rats.
Male, 7-week-old Sprague-Dawley rats (Charles-River laboratories international, Hollister, Calif.) were allowed to acclimatize for a minimum of 3 days before switching to a synthetic low-phosphorus diet (TD.85010, Harlan Teklad, Madison, Wis.) which contains 0.1% phosphorus and 0.6% calcium. At day 5, testing compounds or vehicle alone (as indicated) were orally administered at the indicated dose in a volume of 5 ml/kg, followed by a bolus gavage of monobasic sodium phosphate (1 mmol in 1 ml) 15 min after compound dosing. Serum was collected via retroorbital bleeding 30 min post phosphate bolus and phosphate levels were determined utilizing an ACE ALERA blood chemistry analyzer (Alfa Wassermann Diagnostic Technologies, West Caldwell, N.J.).
The extent of inhibition by test compounds on the elevation of serum phosphate levels in response to the bolus of phosphorus is shown in Table 12 (data are expressed as % Inhibition, with 6-10 animals per data point). The differences between groups were evaluated by one-way analysis of variance with Dunnett's post hoc tests.

[2] = biological target: T1, rat NaP2b (SLC34A2) (Rattus norvegicus, UniProt Q9JJ09); test: Inhibition of NaP2b-mediated Pi (33P) uptake in transfected HEK293 cells, rat NaP2b; format: cell-based; conditions: HEK293 cells transfected with rat NaP2b, 100 uM phosphate, 0.1 nM to 30 uM, read-out: pIC50 range for rat Nap2b (converted)
T1 construct: host or cells: HEK293
T1 sequence (Q9JJ09 1-695): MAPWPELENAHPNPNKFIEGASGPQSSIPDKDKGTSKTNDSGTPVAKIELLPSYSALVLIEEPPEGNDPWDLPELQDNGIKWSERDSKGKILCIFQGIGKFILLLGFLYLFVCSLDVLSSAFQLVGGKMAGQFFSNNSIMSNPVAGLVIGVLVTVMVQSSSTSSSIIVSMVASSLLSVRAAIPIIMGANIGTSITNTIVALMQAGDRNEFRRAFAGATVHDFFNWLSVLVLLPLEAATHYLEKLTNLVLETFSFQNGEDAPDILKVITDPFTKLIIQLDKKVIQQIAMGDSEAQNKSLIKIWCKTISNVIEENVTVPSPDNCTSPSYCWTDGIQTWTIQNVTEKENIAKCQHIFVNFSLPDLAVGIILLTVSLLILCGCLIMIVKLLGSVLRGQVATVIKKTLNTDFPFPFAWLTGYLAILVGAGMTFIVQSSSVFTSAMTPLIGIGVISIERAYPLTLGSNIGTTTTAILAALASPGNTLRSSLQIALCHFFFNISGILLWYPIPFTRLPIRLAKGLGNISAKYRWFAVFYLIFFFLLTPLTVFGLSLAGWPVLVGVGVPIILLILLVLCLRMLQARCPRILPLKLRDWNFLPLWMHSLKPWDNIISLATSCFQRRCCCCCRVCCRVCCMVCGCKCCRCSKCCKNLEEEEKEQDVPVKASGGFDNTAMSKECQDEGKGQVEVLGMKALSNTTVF
In short: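 HEK293 cells transiently transfected with rat NaP2b; 33P-phosphate uptake measured in sodium or choline buffer (100 uM KH2PO4, PiT-silencing agent, pH 7.4) with compound at twelve concentrations, 0.1 nM–30 uM, in duplicate. Lysed cells counted by scintillation; pIC50 derived from concentration-response.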

[3] = test system: 5/6 nephrectomy (5/6Nx) rat model of CKD; test: In vivo evaluation in CKD rats (5/6 nephrectomy, 0.9% P diet, calcitriol); conditions: drug in chow
Experimental: To assess the ability of selected example compounds to impact the progression of chronic kidney disease (CKD), 5/6 nephrectomy (5/6Nx) rat model of CKD was used. […] 5/6 Nx rats were obtained from Charles River Labs (CRL, Hollister, Calif.). Upon arrival, the surgeries and extent of kidney damage in the animals were assessed by measuring serum creatinine, P, Ca, and BUN. Based on this analysis, rats with inconsistent kidney function were removed from the study and the remainder of the cohort was divided in to evenly stratified test groups. The remaining animals were then placed on the same synthetic diet used in the drug-in-chow studies (Example 350), except the P levels were adjusted to 0.9% P. Drugs are blended into this chow to achieve the required dosing rate. At this time, rats were also started on an activated Vitamin D regimen in which they were injected intraperitoneally with calcitriol at 80 ng/kg three times a week. Once a week, serum was collected via retro orbital bleeding for analysis of serum P and creatinine utilizing an ACE ALERA blood chemistry analyzer. […] Unless otherwise indicated, the data shown is from the serum collected at 2 weeks after initiation of the treatment regimen. In addition, for study #3, during the third week of the study, the animals were placed in metabolic cages for two days, and urine collected for the final 24 hours.

[4] = Stability of compounds in simulated gastric fluid (SGF); format: in vitro ADME; conditions: simulated gastric fluid (USP, 3 mg/mL pepsin), 1-20 μM, incubation time 6 hr, relative to t=0
Experimental: (§1) Test compounds were incubated at 1-20 μM in simulated gastric fluid (SGF; standard USP solution with 3 mg/mL pepsin) or simulated intestinal fluid (SIF; standard USP solution with 3 mg/mL pancreatin) for 3 hr or 6 hr. HPLC-UV or HPLC-MS were used to determine test compound levels using peak area %. Results (Table 14) were reported as the percentage of test compound remaining after incubation in a given condition relative to test compound present at t=0 in the same condition.

[5] = biological target: T2, human NaP2b (SLC34A2) (Homo sapiens, UniProt O95436); test: Inhibition of NaP2b-mediated Pi (33P) uptake in transfected HEK293 cells, human NaP2b; format: cell-based; conditions: HEK293 cells transfected with human NaP2b, 100 uM phosphate, 0.1 nM to 30 uM, read-out: pIC50 range for human NaP2b (converted)
T2 construct: host or cells: HEK293
T2 sequence (O95436 1-690): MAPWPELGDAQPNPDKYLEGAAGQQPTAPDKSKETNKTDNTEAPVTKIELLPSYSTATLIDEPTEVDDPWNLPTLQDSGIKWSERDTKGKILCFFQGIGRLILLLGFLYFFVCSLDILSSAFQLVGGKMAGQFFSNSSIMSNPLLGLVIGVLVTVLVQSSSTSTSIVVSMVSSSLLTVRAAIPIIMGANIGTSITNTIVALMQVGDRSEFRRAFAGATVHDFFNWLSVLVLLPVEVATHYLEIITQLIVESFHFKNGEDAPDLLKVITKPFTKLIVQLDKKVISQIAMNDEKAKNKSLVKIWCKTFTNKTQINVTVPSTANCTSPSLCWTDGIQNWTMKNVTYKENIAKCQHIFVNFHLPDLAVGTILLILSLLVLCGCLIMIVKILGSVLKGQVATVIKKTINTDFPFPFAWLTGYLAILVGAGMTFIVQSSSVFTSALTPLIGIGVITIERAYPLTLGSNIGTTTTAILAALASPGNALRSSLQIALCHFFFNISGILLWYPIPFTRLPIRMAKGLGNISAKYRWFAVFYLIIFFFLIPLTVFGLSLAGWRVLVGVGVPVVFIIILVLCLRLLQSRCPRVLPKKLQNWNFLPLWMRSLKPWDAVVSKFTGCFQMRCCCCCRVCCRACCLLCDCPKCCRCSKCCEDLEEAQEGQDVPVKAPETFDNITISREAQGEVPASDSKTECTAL
Experimental: HEK293 cells were obtained from the American Type Culture collection and propagated per their instructions. Expression clones for rat and human NaP2b (SLC34A2) were obtained from Open Biosystems (Catalog numbers MRN1768-9510282, and MHS1010-99823026, respectively). The sequence of the human protein was mutated to insert a threonine after residue 37, and to introduce a N39D mutation.
The rate of phosphate (Pi) uptake into HEK293 cells was measured using a modification of the method described by Mohrmann et al. (Mohrmann, I., Mohrmann, M., Biber, J., and Murer, H. (1986) Am. J. Phys. 250(3 Pt 1):G323-30.) Transfected HEK293 cells were treated with a pharmacological agent to minimize endogenous PiT-mediated phosphate transport activity, such that the only remaining sodium-dependent phosphate transport activity is that which was bestowed by introduction of the NaP2b genes.
Cells were seeded into 96-well plates at 25,000 cells/well and cultured overnight. Lipofectamine 2000 (Invitrogen) was used to introduce the NaP2b cDNA, and the cells were allowed to approach confluence during a second overnight incubation. […] Cells were then overlayed with either choline uptake buffer or sodium uptake buffer (14 mM Tris, 137 mM sodium chloride, 5.4 mM KCl, 2.8 mM CaCl2, 1.2 mM MgSO4, 100 uM KH2PO4, PiT-silencing agent, 1 mg/mL Bovine Serum Albumin, pH 7.4) containing 6-9 uCi/mL ^33P orthophosphoric acid (Perkin Elmer) and test compound. Each compound was tested at twelve concentrations ranging from 0.1 nM to 30 uM. Assays were run in duplicate.
After incubation for 3-30 minutes at room temperature, assay mixtures were removed, and the cells were washed twice with ice cold stop solution (137 mM sodium chloride, 14 mM Tris, pH 7.4). Cells were lysed by addition of 20 μL 0.1% Tween 80 followed by 100 μL scintillation fluid, and counted using a TopCount (Perkin Elmer).
pIC50 (the negative log of the […]) values of the test compounds were calculated using GraphPad Prism.

[6] = Stability of compounds in simulated intestinal fluid (SIF); format: in vitro ADME; conditions: simulated intestinal fluid (USP, 3 mg/mL pancreatin), 1-20 μM, incubation time 6 hr, relative to t=0
Experimental: as §1

O=C(O)CCSCc1cccc(C(=O)Nc2ccc(N3CCOCC3)cc2-c2cc(C(=O)NCc3cccc(C(F)(F)F)c3)ccn2)c1 [Example 14, 3-((3-((4-Morpholino-2-(4-((3-(trifluoromethyl)benzyl)carbamoyl)pyridin-2-yl)phenyl)carbamoyl)benzyl)thio)propanoic acid]
% Inhibition of Serum P elevation [1]: 10-20%
IC50 [2]: 10 to 31.6 µM

O=C(O)CCSCc1cccc(C(=O)Nc2ccc(Cl)cc2-c2cc(C(=O)NCc3cccc(C(F)(F)F)c3)ccn2)c1 [Example 21, 3-((3-((4-Chloro-2-(4-((3-(trifluoromethyl)benzyl)carbamoyl)pyridin-2-yl)phenyl)carbamoyl)benzyl)thio)propanoic acid]
% Inhibition of Serum P elevation [1]: 10-20%
IC50 [2]: 1 to 7.94 µM

CCN(CC)c1ccc(NC(=O)c2cccc(CSCCOCCOCCOCCOCCOCCOCCOCCOCCC(=O)O)c2)c(-c2cc(C(=O)NCc3cccc(C(F)(F)F)c3)ccn2)c1 [Example 166, 1-(3-(4-(diethylamino)-2-(4-(3-(trifluoromethyl)benzylcarbamoyl)pyridin-2-yl)phenylcarbamoyl)phenyl)-5,8,11,14,17,20,23,26-octaoxa-2-thianonacosan-29-oic acid]
Ser CRE ([3]; study 2, 2 weeks): 1.2 mg/dL
Ser P ([3]; study 2, 2 weeks): 11 mg/dL
FGF23 ([3]; study 2, 2 weeks, serum): 100000 pg/mL
Ser CRE, mg/dL ([3]; study 3, 3 weeks): 1.0^§ mg/dL
Ser P, mg/dL ([3]; study 3, 3 weeks): 10^§ mg/dL
Avg % weight gain ([3]; study 3, 4 weeks): 35^§§ %
FGF23, pg/mL ([3]; study 3, 4 weeks, serum): 1.2 × 10^5§§ pg/mL

CCN(CC)c1ccc(NC(=O)c2cccc(COCCOCCOCCOCCOCCOCCOC(=O)NCCOCCOCCOCCOCCOCCOCCOC)c2)c(-c2cc(C(=O)NCc3cccc(C(F)(F)F)c3)ccn2)c1 [Example 174, 1-(3-(4-(diethylamino)-2-(4-(3-(trifluoromethyl)benzylcarbamoyl)pyridin-2-yl)phenylcarbamoyl)phenyl)-2,5,8,11,14,17-hexaoxanonadecan-19-yl 2,5,8,11,14,17,20-heptaoxadocosan-22-ylcarbamate]
% remaining, SGF [4]: >80%
IC50 [5]: < 1 µM
% remaining, SIF [6]: >80%
IC50 [2]: 1 to 7.94 µM

CCN(CC)c1ccc(NC(=O)c2cccc(C(=O)N(C)CCN3CCN(C(=O)N(C)CCOCCOCCOCCC(=O)N(C)C[C@H](O)[C@@H](O)[C@H](O)[C@H](O)CO)CC3)c2)c(-c2cc(C(=O)N[C@H]3CCCc4ccccc43)ccn2)c1 [Example 232, 3-N-[4-(diethylamino)-2-(4-{[(1S)-1,2,3,4-tetrahydronaphthalen-1-yl]carbamoyl}pyridin-2-yl)phenyl]-1-N-methyl-1-N-(2-{4-[methyl(2-{2-[2-(2-{methyl[(2S,3R,4R,5R)-2,3,4,5,6-pentahydroxyhexyl]carbamoyl}ethoxy)ethoxy]ethoxy}ethyl)carbamoyl]piperazin-1-yl}ethyl)benzene-1,3-dicarboxamide]
IC50 [5]: 10 to 31.6 µM
IC50 [2]: 10 to 31.6 µM

CCN(CC)c1ccc(NC(=O)c2cccc(CCCOCCOCCOCCOCCOCCOCCOCCOCCOC)c2)c(-c2cc(C(=O)N[C@H]3CCCc4ccccc43)ccn2)c1 [Example 261, (S)-2-(2-(3-(2,5,8,11,14,17,20,23,26-nonaoxanonacosan-29-yl)benzamido)-5-(diethylamino)phenyl)-N-(1,2,3,4-tetrahydronaphthalen-1-yl)isonicotinamide]
Ser CRE ([3]; study 1, 2 weeks): 1.0 mg/dL
Ser P ([3]; study 1, 2 weeks): 9.7 mg/dL
FGF23, pg/mL ([3]; study 1, 2 weeks, serum): >15,000 pg/mL

CCN(CC)c1ccc(NC(=O)c2cccc(CCCOCCOCCOCCOCCC(=O)N3CCN(C(=O)c4cccc(CCCOCCOCCOCCOCCC(=O)O)c4)CC3)c2)c(-c2cc(C(=O)NCc3cccc(C(F)(F)F)c3)ccn2)c1 [Example 293, 16-(3-(4-(16-(3-(4-(diethylamino)-2-(4-(3-(trifluoromethyl)benzylcarbamoyl)pyridin-2-yl)phenylcarbamoyl)phenyl)-4,7,10,13-tetraoxahexadecane)piperazine-1-carbonyl)phenyl)-4,7,10,13-tetraoxahexadecan-1-oic acid]
IC50 [5]: 1 to 7.94 µM
IC50 [2]: 1 to 7.94 µM
